Measured values published in patent US11382889B2, “NRF2 activators for the prevention and/or treatment of axonal degeneration” (priority 2018, dated 2022).
Where a name gives a salt, the structure may show the parent alone.

How the values were obtained:
[1] = Tolerability of dietary DMF in mice (weight, food intake, adverse events); conditions: DMF 100 mg/kg/day in chow
Text: We used male mice of a pure C57BL/6J background. All methods employed in this study were in accordance with the Guide for the Care and Use of Laboratory Animals (Guide, 8th edition, 2011, NIH) and European (2010/63/UE) and Spanish (RD 53/2013) legislation. Experimental protocol had been approved by IDIBELL, IACUC (Institutional Animal Care and Use Committee) and regional authority (3546 DMAH, Generalitat de Catalunya, Spain). IDIBELL animal facility has been accredited by The Association for Assessment and Accreditation of Laboratory Animal Care (AAALAC, Unit 1155). Animals were housed at 22° C. on specific-pathogen free conditions, in a 12-hour light/dark cycle, and ad libitum access to food and water. Cages contained 3 to 5 animals.
DMF was mixed into AIN-76A chow from Dyets (Bethlehem, Pa., USA) to provide a dose of 100 mg/kg/day. Human equivalent dose would be 8 mg/kg/day ([…] in a typical 60 kg person). This is equivalent to the starting dose of BG-12/Tecfidera that is 120 mg twice a day for MS patients (EMA/204830/2013).
For the characterization of biochemical signs on adult X-ALD mice, 8-months-old animals were randomly assigned to one of the following dietary groups for 4 months.
Group I: wild-type (WT) mice received normal AIN-76A chow (n=12); group II: Abcd1^− mice received normal AIN-76A chow (n=12); group III: Abcd1^− mice received AIN-76A chow containing DMF (n=12). To evaluate the effect of DMF on the clinical signs of AMN-like pathology, 12-months-old animals were randomly assigned to one of the following dietary groups for 6 months. Group I: WT mice received normal AIN-76A chow (n=14); group II: Abcd1^−/Abcd2^−/− mice received normal AIN-76A chow (n=16); group III: Abcd1^−/Abcd2^−/− mice received AIN-76A chow containing DMF (n=14).

NRF2 = NRF2 protein levels and NRF2-target gene expression in Abcd1− mice spinal cord after dietary DMF; format: in vivo; conditions: 12 months of age, DMF 100 mg/kg/day in chow for 4 months
Text: a) NRF2 protein levels in WT (n=6), Abcd1^− (n=6) and DMF-treated Abcd1^− mice (Abcd1^−+DMF, n=6) mice spinal cord at 12 months of age. Protein levels were normalized relative to γ-TUB and quantification is depicted as fold change to WT (Wild type) mice. b) NRF2-dependent antioxidative genes (Hmox1, Nqo1 and Gst α 3) expression in WT (n=8), Abcd1^− (n=8) and Abcd1^−+DMF (n=8) mice spinal cord at 12 months of age. Gene expression levels were normalized relative to Rplp0. Quantification is represented as fold change to WT mice. c) Mitochondrial DNA (mtDNA) levels in WT (n=8), Abcd1^− (n=8) and Abcd1^−+DMF (n=8) mice spinal cord at 12 months of age. mtDNA content was measured by quantitative RT-PCR and expressed as the ratio of mtDNA (CytB levels) to nuclear DNA (nDNA, Cebpa levels). Quantification is depicted as fold change to WT mice. d) Sirt1, Pgc-1α, Nrf1 and Tfam expression was measured by quantitative RT-PCR in WT (n=8), Abcd1^− (n=8) and Abcd1^−+DMF (n=8) mice spinal cord at 12 months of age. Gene expression levels were normalized relative to Rplp0. Quantification is depicted as fold change to WT mice. e) ATP levels in WT (n=8), Abcd1^− (n=8) and Abcd1^−+DMF (n=8) mice spinal cord at 12 months of age. Quantification is represented as fold change to WT mice. […]

[2] = any treatment protocol (4 or 6 months)

In the case of `COC(=O)/C=C/C(=O)OC` [DMF, dimethyl fumarate], the “adverse events or death during treatment” value ([1]; 4 or 6 months) is reported as “none of the mice administered with DMF experienced any adverse events or death”, the “effect on food intake” value [1, 2] is reported as “no effect” and the effect on weight [1, 2] is reported as “no effect”. The NRF2 protein levels (NRF2) was “induced” and the “NRF2 target genes expression (Hmox1, Nqo1, Gstα3)” value (NRF2) was “induced”.
